Assay results published in PubChem BioAssay (NCI).
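In this assay, cells in 96-well plates receive the compound at five concentrations for 48 hours. Endpoints are linearly interpolated between the surrounding concentrations. The concentration for full growth arrest is given as TGI.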 *1 amine or outer side, *2 acyl side, *3 side chain or, on linkers, in order; H or OH if unused. Where a SMILES comes first, the peptide text is derived from it. Bridges are numbered along the chain shown (N, C = ends). Roman numbers before positions name the chains, in order. [ ]: non-standard residue; d: D form. Actinocin(9to1) = Cc1c2oc3c(C)ccc(C(=O)[*:1])c3nc-2c(C(=O)[*:2])c(N)c1=O; NMeV = CN[CH](C(=O)O)C(C)C; Sar = CNCC(=O)O

Tests used:
Assay in all cases: inhibition of tumour cell growth, NCI panel, 48 h
[1] = tested on: MDA-N
[2] = tested on: NCI-H226 lung
[3] = tested on: KM12 colon
[4] = tested on: OVCAR-8 ovarian
[5] = tested on: SN12C renal
[6] = tested on: MCF7 breast
[7] = tested on: OVCAR-4 ovarian
[8] = tested on: SW-620 colon
[9] = tested on: MOLT-4 leukemia
[10] = tested on: CAKI-1 renal

Row | SMILES | TGI [1] [µM] | TGI [2] [µM] | TGI [3] [µM] | TGI [4] [µM] | TGI [5] [µM] | TGI [6] [µM] | TGI [7] [µM] | TGI [8] [µM] | TGI [9] [µM] | TGI [10] [µM]
1 | CSC1=C(C#N)C(=O)N(c2ccc(C)cc2)C(=S)C1C#N (stereo not given) | > 100 | > 100 | > 100 | > 100 | > 100 | > 100 | > 100 | > 100 | > 100 | > 100
2 | NC(=O)c1ccc2c(c1)S(=O)(=O)c1ccccc1C2=O | > 100 | > 100 | > 100 | > 100 | > 100 | > 100 | > 100 | > 100 | > 100 | > 100
3 | Cc1sc(/N=C/c2c[nH]c3ccccc23)c(C#N)c1C | > 100 | > 100 | > 100 | > 100 | > 100 | > 100 | > 100 | > 100 | > 100 | > 100
4 | CCCCc1ccc(Nc2ncc3[nH]cnc3n2)cc1 | > 100 | 45.4 | 45 | 36.3 | 48.9 | > 100 | 80.1 | 42.6 | > 100 | 36.4
5 | COC(=O)/C=C1\CCC(C)(C(=O)NS(=O)(=O)c2ccc(C)cc2)C1(C)C (stereo not given) | > 100 | > 100 | > 100 | > 100 | > 100 | > 100 | > 100 | > 100 | > 100 | > 100
6 | Nc1ccccc1N/C=C\C(=O)C(Cl)(Cl)Cl | 30.9 | > 100 | 29.4 | > 100 | 40.2 | 30.7 | 44.4 | 48.1 | > 100 | 51.3
7 | COc1ccc2c(c1)N=C1CSC(c3ccccc3Cl)N1C2 (stereo not given) | 26.8 | 50.5 | 18.4 | 42.4 | 37.5 | 53.5 | 35.6 | 39.5 | 15.7 | 24.6
8 | COC(=O)n1c(=O)n(-c2ccccc2)c(=O)n1C(=O)OC | > 100 | > 100 | > 100 | > 100 | > 100 | > 100 | > 100 | > 100 | > 100 | > 100
9 | CCCCCCCCCCCCCCCCCCNc1ccn(C2OC(COP(=O)(O)OCC3OC(n4cc(C)c(=O)[nH]c4=O)CC3N=[N+]=[N-])C(O)C2O)c(=O)n1 (stereo not given) | > 100 | 43.7 | 35 | 48.8 | 48.1 | > 100 | 83.9 | 58.8 | 44.4 | 58.6
10 | CC(CO)C1C[C@H](O)[C@@]2(C)CC(=O)C=C(CO)[C@@H]2C1 (stereo not given in full) | > 100 | > 100 | > 100 | > 100 | > 100 | > 100 | > 100 | > 100 | > 100 | > 100
11 | CN(C)CCNC(=O)c1cccc2nc3c(nc12)-c1ccccc1C3=O | 25.7 | 39.6 | 33.2 | 62.7 | 28.9 | 24.3 | 58.2 | 39.4 | 7.52 | 66.4
12 | Cc1nc2ccc(S(=O)(=O)O)cc2c(=O)n1-c1ccc(C(=O)NN2C(=O)C(Cl)C2c2ccccc2O)cc1 (stereo not given) | > 100 | > 100 | > 100 | > 100 | > 100 | > 100 | > 100 | > 100 | > 100 | > 100
13 | O=c1c(C=Nc2ccc([N+](=O)[O-])cc2)c(O)n(-c2ccccc2)c(=O)n1-c1ccccc1 | > 100 | > 100 | > 100 | > 100 | > 100 | > 100 | > 100 | > 100 | > 100 | > 100
14 | O=c1c2cc(I)ccc2nc(Sc2ncccc2[N+](=O)[O-])n1Cc1ccccc1 | > 100 | > 100 | > 100 | > 100 | > 100 | > 100 | > 100 | > 100 | > 100 | > 100
15 | O=C1C=C(Br)c2c(Br)sc(Br)c21 | > 52 | 98.8 | 37.3 | 12.1 | 38.3 | 17.4 | 34.4 | > 20.6 | 12.2 | 26.6
16 | OC1(c2cc3ccccc3s2)CCCCC1 | > 100 | > 100 | > 100 | > 100 | > 100 | > 100 | > 100 | > 100 | 67.4 | > 100

Row | SMILES | TGI [1] [µM] | TGI [2] [µM] | TGI [3] [µM] | TGI [4] [µM] | TGI [5] [µM] | TGI [6] [µM] | TGI [7] [µM] | TGI [8] [µM] | TGI [9] [µM] | TGI [10] [µM]
17 | CC(C)(C)C1(COC(=O)c2ccc(N)cc2)COC1 | > 100 | > 100 | > 100 | > 100 | > 100 | > 100 | > 100 | > 100 | > 100 | > 100
18 | CC[C@H](C)[C@H]1NC(=O)[C@@H](NC(=O)[C@@H](CC(C)C)N(C)CC2CCCN2C(=O)C(C)=O)[C@@H](C)OC(=O)[C@H](Cc2ccc(OC)cc2)N(C)C(=O)C2CCCN2C(=O)[C@H](CC(C)C)NC(=O)[C@@H](C)C(=O)[C@H](C(C)C)OC(=O)C[C@@H]1O (stereo not given in full) | 0.02 | 0.0809 | 0.0105 | 0.0474 | 0.0301 | 0.00747 | 0.00687 | 1.8 | 0.00608 | 0.338
19 | CCc1ccc2[nH]c(O)c(-c3[nH]c4ccccc4c3N=O)c2c1 | 20.5 | 62.5 | 4.51 | 32.2 | 18 | 6.05 | 21.8 | 89.9 | > 100 | 19.8
20 | C=CCSC1=N/C(=C\c2ccccc2)C(=O)N1CC=C | > 100 | > 100 | > 100 | > 100 | > 100 | > 100 | > 100 | > 100 | 19.1 | > 100
21 | O=c1cc(N2CCCC2)[nH]c(=O)n1-c1cccc(C(F)(F)F)c1 | > 100 | > 100 | > 100 | > 100 | > 100 | > 100 | > 100 | > 100 | > 100 | > 100
22 | Cc1c2oc3c(C)ccc(C(=O)NC4C(=O)NC(C(C)O)C(=O)N5CCCC5C(=O)N(C)CC(=O)N(C)C(C(C)C)C(=O)OC4C)c3nc-2c(C(=O)NC2C(=O)NC(C(C)O)C(=O)N3CCCC3C(=O)N(C)CC(=O)N(C)C(C(C)C)C(=O)OC2C)c(N)c1=O (stereo not given) (I: TTP[Sar][NMeV] / II: TTP[Sar][NMeV]; ester I:1-I:C, II:1-II:C; linker I:N-II:N via Actinocin(9to1); configuration not given here) | 11.8 | 0.803 | > 30.1 | > 82.4 | > 100 | 1.06 | > 63.3 | > 100 | 0.598 | > 100
23 | CN(C)Cc1cc(O)c(O)c(CN(C)C)c1 | > 100 | > 100 | > 100 | > 100 | > 100 | > 100 | > 100 | > 100 | > 100 | > 100
24 | COC(OC)C1OC(CO)C(n2ccc(N)nc2=O)C1O (stereo not given) | > 100 | > 100 | > 100 | > 100 | > 100 | > 100 | > 100 | > 100 | > 100 | > 100
25 | O=C1c2c(nc3ccccc3c2-c2ccccc2)CN1Nc1ccccn1 | > 100 | > 89 | > 100 | > 87.1 | > 100 | > 100 | > 100 | > 100 | > 100 | > 86.9
26 | NC(=S)Nc1[nH]c(=S)nc2c1SC1=N/C(=C\c3ccco3)C(=O)N12 | > 100 | > 100 | > 100 | > 100 | > 100 | > 100 | > 100 | > 100 | > 100 | > 100
27 | CCOC(=O)/C=C(\C(=O)OCC)n1ccc(N)nc1=O | > 100 | > 100 | > 100 | > 100 | > 100 | > 100 | > 100 | > 100 | > 100 | > 100
28 | CCOc1nc(-c2ccccc2)cc(-c2ccc(N3CCOCC3)cc2)c1C#N | > 100 | > 100 | > 100 | > 100 | > 100 | > 100 | > 100 | > 100 | > 100 | > 100
29 | CC(C)c1ccc(/C=C2\CSCC3=C2NC(=S)NC3c2ccc(C(C)C)cc2)cc1 (stereo not given) | > 100 | > 100 | > 100 | > 100 | > 100 | > 100 | > 100 | > 100 | > 100 | > 100
30 | COc1cccc(N(CN2CC=CC2=O)C(C)=O)c1 | > 100 | > 100 | > 100 | > 100 | > 100 | > 100 | > 100 | > 100 | > 100 | > 100
31 | CNC(=O)c1cc(NC(=O)N(CCC#N)CCN(C(=O)N[C@@H](Cc2ccccc2)C(=O)N[C@@H](CC(C)C)C(=O)NC)c2ccccc2)ccc1OC | > 100 | > 100 | > 100 | > 100 | > 85.1 | > 100 | > 100 | > 100 | > 100 | > 100
32 | CCOC(=O)/C=C(/C(=O)OCC)n1cc(C)c(=O)n(Cc2cn(COCCOC(C)=O)nn2)c1=O | > 85.4 | > 54 | > 62.9 | 32.7 | 59.8 | 43.5 | 40 | > 57.6 | > 61.2 | 23.6
